Measured values: patent publication US20220249441A1, “Homodimeric Tobramycin Adjuvant Repurposes Novobiocin as an Effective Antibacterial Agent Against Gram-Negative Bacteria” (priority 2019, published 2022)
≈ marks a conversion by molar mass, not a printed value.

Tests used:
[1] = test system: panel of Gram-positive and Gram-negative bacteria; assay: Antimicrobial susceptibility assay against a panel of bacteria; type: cell-based; details: some isolates
Procedure: Antimicrobial Susceptibility Assay. The in vitro antimicrobial activity of all compounds/antibiotics against a panel of bacteria was evaluated by microbroth dilution method in accordance with the Clinical and Laboratory Standards Institute (CLSI) guidelines (using ATCC strains as quality control strains) (54). Overnight grown bacterial cultures were diluted in saline to achieve a 0.5 McFarland turbidity, followed by 1:50 dilution in Mueller-Hinton broth (MHB) for inoculation to a final concentration of approximately 5×10^5 CFU/mL. […] The lowest concentration that prevented the visible growth of bacteria was defined as the MIC for each antimicrobial agent. The broth with or without bacterial cells was used as positive or negative control, respectively.

P. aeruginosa = assay: Checkerboard assay (antibiotic + adjuvant combination MIC); type: cell-based, Pseudomonas aeruginosa; details: compound at 8 μM
[2] = test system: P. aeruginosa PAO1 and efflux deficient mutants, MDR/XDR isolates; assay: microbe, parasite or virus in culture; type: cell-based, Pseudomonas aeruginosa
Procedure: Antimicrobial Susceptibility Assay. The in vitro antimicrobial activity of all compounds/antibiotics against a panel of bacteria was evaluated by microbroth dilution method in accordance with the Clinical and Laboratory Standards Institute (CLSI) guidelines (using ATCC strains as quality control strains) (54). […] The broth with or without bacterial cells was used as positive or negative control, respectively.

Procedure for porcine erythrocytes: Hemolytic Assay. The hemolytic activities of the newly synthesized compounds were determined and quantified as the amount of hemoglobin released by lysing porcine erythrocytes. […] The final cell concentration used was 3×10^8 cells/mL. Compounds were serially diluted with PBS and added to wells in a 96-well plate at twice the desired concentrations. […] Intact erythrocytes were subsequently pelleted by centrifuging at 1000 g at 4° C. for 10 mins, and the supernatants were transferred to a new 96-well plate. […] Blood cells in PBS (0% hemolysis) and 0.1% Triton X-100 (100% hemolysis) were used as negative and positive controls, respectively. Percent hemolysis was calculated as [% hemolysis=(X−0%)/(100%−0%)], where X is the optical density values of the compounds at different concentrations (49).

SMILES: NC[C@H]1O[C@H](O[C@H]2[C@H](OCCCCCCn3cc(CCCCO[C@@H]4[C@@H](O[C@H]5O[C@H](CO)[C@@H](O)[C@H](N)[C@H]5O)[C@H](N)C[C@H](N)[C@H]4O[C@H]4O[C@H](CN)[C@@H](O)C[C@H]4N)nn3)[C@@H](O[C@H]3O[C@H](CO)[C@@H](O)[C@H](N)[C@H]3O)[C@H](N)C[C@@H]2N)[C@H](N)C[C@@H]1O.O=C(O)C(F)(F)F.O=C(O)C(F)(F)F.O=C(O)C(F)(F)F.O=C(O)C(F)(F)F.O=C(O)C(F)(F)F.O=C(O)C(F)(F)F.O=C(O)C(F)(F)F.O=C(O)C(F)(F)F.O=C(O)C(F)(F)F.O=C(O)C(F)(F)F [Compound 2, Tobramycin Homodimer 2]
- hemolysis of porcine erythrocytes (porcine erythrocytes): non-hemolytic

SMILES: N=C(N)NC[C@H]1O[C@H](O[C@H]2[C@H](OCCCCCCCCCCCCN3CCN(c4cc5c(cc4F)c(=O)c(C(=O)O)cn5C4CC4)CC3)[C@@H](O[C@H]3O[C@H](CO)[C@@H](O)[C@H](NC(=N)N)[C@H]3O)[C@H](NC(=N)N)C[C@@H]2NC(=N)N)[C@H](NC(=N)N)C[C@@H]1O [Compound 27, Guanidinylated Tobramycin-Ciprofloxacin Conjugate]
- intrinsic antimicrobial activity [1]: some modest residual activity
- MIC of Aztreonam + compound (P. aeruginosa; P. aeruginosa PAO1): 0.5 µg/mL
- MIC of Ceftazidime + compound (P. aeruginosa; P. aeruginosa PAO1): 0.25 µg/mL
- MIC of Imipenem + compound (P. aeruginosa; P. aeruginosa PAO1): 1 µg/mL
- MIC of Piperacillin + compound (P. aeruginosa; P. aeruginosa PAO1): 8 µg/mL
- MIC of ATM in the presence of compound (P. aeruginosa; PA 259-96918): 32 µg/mL
- MIC of CAZ in the presence of compound (P. aeruginosa; PA 259-96918): 512 µg/mL
- MIC of IPM in the presence of compound (P. aeruginosa; PA 259-96918): 64 µg/mL
- MIC of ATM in the presence of compound (P. aeruginosa; PA 260-97103): 8 µg/mL
- MIC of CAZ in the presence of compound (P. aeruginosa; PA 260-97103): 16 µg/mL
- MIC of IPM in the presence of compound (P. aeruginosa; PA 260-97103): 8 µg/mL
- MIC of ATM in the presence of compound (P. aeruginosa; PA 262-101856): 32 µg/mL
- MIC of CAZ in the presence of compound (P. aeruginosa; PA 262-101856): 16 µg/mL
- MIC of IPM in the presence of compound (P. aeruginosa; PA 262-101856): 16 µg/mL
- MIC of ATM in the presence of compound (P. aeruginosa; PA 264-104354): 32 µg/mL
- MIC of CAZ in the presence of compound (P. aeruginosa; PA 264-104354): 128 µg/mL
- MIC of IPM in the presence of compound (P. aeruginosa; PA 264-104354): 16 µg/mL
- MIC of ATM in the presence of compound (P. aeruginosa; PA 86052): 32 µg/mL
- MIC of CAZ in the presence of compound (P. aeruginosa; PA 86052): 32 µg/mL
- MIC of IPM in the presence of compound (P. aeruginosa; PA 86052): 16 µg/mL
- MIC of ATM in the presence of compound (P. aeruginosa; PA 88949): 32 µg/mL
- MIC of CAZ in the presence of compound (P. aeruginosa; PA 88949): 32 µg/mL
- MIC of IPM in the presence of compound (P. aeruginosa; PA 88949): 64 µg/mL
- MIC of ATM in the presence of compound (P. aeruginosa; PA 91433): 16 µg/mL
- MIC of CAZ in the presence of compound (P. aeruginosa; PA 91433): 4 µg/mL
- MIC of IPM in the presence of compound (P. aeruginosa; PA 91433): 8 µg/mL
- MIC of ATM in the presence of compound (P. aeruginosa; PA 100036): 16 µg/mL
- MIC of CAZ in the presence of compound (P. aeruginosa; PA 100036): 6 µg/mL
- MIC of IPM in the presence of compound (P. aeruginosa; PA 100036): 4 µg/mL
- MIC of ATM in the presence of compound (P. aeruginosa; PA 101243): 4 µg/mL
- MIC of CAZ in the presence of compound (P. aeruginosa; PA 101243): 16 µg/mL
- MIC of IPM in the presence of compound (P. aeruginosa; PA 101243): 4 µg/mL
- MIC of ATM in the presence of compound (P. aeruginosa; PA 101885): 4 µg/mL
- MIC of CAZ in the presence of compound (P. aeruginosa; PA 101885): 2 µg/mL
- MIC of IPM in the presence of compound (P. aeruginosa; PA 101885): 2 µg/mL
- MIC of ATM in the presence of compound (P. aeruginosa; PA 107092): 32 µg/mL
- MIC of CAZ in the presence of compound (P. aeruginosa; PA 107092): 32 µg/mL
- MIC of IPM in the presence of compound (P. aeruginosa; PA 107092): 32 µg/mL
- MIC of ATM in the presence of compound (P. aeruginosa; PA 108590): 2 µg/mL
- MIC of CAZ in the presence of compound (P. aeruginosa; PA 108590): 2 µg/mL
- MIC of IPM in the presence of compound (P. aeruginosa; PA 108590): 4 µg/mL
- MIC of ATM in the presence of compound (P. aeruginosa; PA 109084): 32 µg/mL
- MIC of CAZ in the presence of compound (P. aeruginosa; PA 109084): 32 µg/mL
- MIC of IPM in the presence of compound (P. aeruginosa; PA 109084): 16 µg/mL
- MIC of ATM in the presence of compound (P. aeruginosa; PA 114228): 8 µg/mL
- MIC of CAZ in the presence of compound (P. aeruginosa; PA 114228): 2 µg/mL
- MIC of IPM in the presence of compound (P. aeruginosa; PA 114228): 1 µg/mL
- MIC of ATM in the presence of compound (P. aeruginosa; PA O200 (efflux-deficient)): 0.06 µg/mL
- MIC of CAZ in the presence of compound (P. aeruginosa; PA O200 (efflux-deficient)): 0.25 µg/mL
- MIC of IPM in the presence of compound (P. aeruginosa; PA O200 (efflux-deficient)): 2 µg/mL
- MIC of ATM in the presence of compound (P. aeruginosa; PA O750 (efflux-deficient)): 0.06 µg/mL
- MIC of CAZ in the presence of compound (P. aeruginosa; PA O750 (efflux-deficient)): 0.25 µg/mL
- MIC of IPM in the presence of compound (P. aeruginosa; PA O750 (efflux-deficient)): 1 µg/mL
- MIC of ATM in the presence of compound (P. aeruginosa; PAO1): 0.5 µg/mL
- MIC of CAZ in the presence of compound (P. aeruginosa; PAO1): 0.25 µg/mL
- MIC of IPM in the presence of compound (P. aeruginosa; PAO1): 1 µg/mL
- MIC ([2]; PA0750 (efflux-deficient)): 2 µg/mL (≈ 1.7 µM)
- MIC ([2]; PAO1 (wild-type)): 32 µg/mL (≈ 27.2 µM)
- MIC ([2]; PAO200 (second column so headed)): 16 µg/mL (≈ 13.6 µM)

SMILES: NC[C@H]1O[C@H](O[C@H]2[C@H](OCCCCCCCCn3cc(CCCCO[C@@H]4[C@@H](O[C@H]5O[C@H](CO)[C@@H](O)[C@H](N)[C@H]5O)[C@H](N)C[C@H](N)[C@H]4O[C@H]4O[C@H](CN)[C@@H](O)C[C@H]4N)nn3)[C@@H](O[C@H]3O[C@H](CO)[C@@H](O)[C@H](N)[C@H]3O)[C@H](N)C[C@@H]2N)[C@H](N)C[C@@H]1O.O=C(O)C(F)(F)F.O=C(O)C(F)(F)F.O=C(O)C(F)(F)F.O=C(O)C(F)(F)F.O=C(O)C(F)(F)F.O=C(O)C(F)(F)F.O=C(O)C(F)(F)F.O=C(O)C(F)(F)F.O=C(O)C(F)(F)F.O=C(O)C(F)(F)F [Compound 3, Tobramycin Homodimer 3]
- hemolysis of porcine erythrocytes (porcine erythrocytes): non-hemolytic
